The values below come from patent US10040781B2, “Tank-binding kinase inhibitor compounds” (Gilead Sciences, Inc., priority 2014, dated 2018).

One assay has as its target IKKε (Homo sapiens (Human), UniProt Q14164). The assay can be described thus: IKKε TR-FRET enzymatic assay. The class given is biochemical. Conditions: read-out: IKKe IC50. In general terms: TR-FRET usually uses a lanthanide donor and a delayed reading to cut background.
In another assay the target is hJAK2 (Homo sapiens (Human), UniProt O60674). Description: hJAK2 LANCE TR-FRET enzymatic assay. The class given is biochemical. The settings on record: read-out: JAK2 IC50.
Sequence of hJAK2 (O60674 whole entry): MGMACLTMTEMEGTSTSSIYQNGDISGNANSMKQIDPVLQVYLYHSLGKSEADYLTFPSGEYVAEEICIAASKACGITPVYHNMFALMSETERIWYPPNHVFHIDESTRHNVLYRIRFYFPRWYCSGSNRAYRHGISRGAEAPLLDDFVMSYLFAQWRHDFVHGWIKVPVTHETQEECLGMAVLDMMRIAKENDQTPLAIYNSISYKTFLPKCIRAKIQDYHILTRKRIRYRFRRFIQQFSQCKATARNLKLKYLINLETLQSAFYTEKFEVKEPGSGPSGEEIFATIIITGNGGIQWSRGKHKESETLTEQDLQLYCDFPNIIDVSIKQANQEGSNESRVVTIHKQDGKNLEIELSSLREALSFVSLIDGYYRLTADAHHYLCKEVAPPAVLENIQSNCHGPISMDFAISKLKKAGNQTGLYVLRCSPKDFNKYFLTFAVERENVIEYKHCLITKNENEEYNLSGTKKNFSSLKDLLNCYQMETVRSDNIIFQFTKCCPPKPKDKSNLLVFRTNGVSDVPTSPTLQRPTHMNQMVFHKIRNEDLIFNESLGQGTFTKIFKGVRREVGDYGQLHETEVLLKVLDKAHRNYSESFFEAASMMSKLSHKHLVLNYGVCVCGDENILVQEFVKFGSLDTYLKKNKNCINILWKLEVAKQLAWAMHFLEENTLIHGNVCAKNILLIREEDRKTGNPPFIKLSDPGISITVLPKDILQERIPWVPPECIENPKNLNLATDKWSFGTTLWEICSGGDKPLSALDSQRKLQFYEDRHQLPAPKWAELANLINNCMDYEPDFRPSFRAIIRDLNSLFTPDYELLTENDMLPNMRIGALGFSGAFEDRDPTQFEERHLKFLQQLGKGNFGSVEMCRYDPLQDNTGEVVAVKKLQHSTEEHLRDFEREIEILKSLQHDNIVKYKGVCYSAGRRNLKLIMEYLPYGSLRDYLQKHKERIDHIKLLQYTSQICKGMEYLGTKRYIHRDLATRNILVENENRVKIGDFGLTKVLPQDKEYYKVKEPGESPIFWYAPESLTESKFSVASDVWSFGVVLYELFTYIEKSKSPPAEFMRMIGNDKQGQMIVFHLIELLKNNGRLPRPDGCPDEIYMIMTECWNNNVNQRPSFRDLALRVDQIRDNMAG
Another assay has as its target TBK1 (Homo sapiens (Human), UniProt Q9UHD2). Description: TBK1 TR-FRET enzymatic assay.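 Also: phosphorylation of a biotinylated Ser/Thr peptide by purified full-length recombinant TBK1, read by TR-FRET after 240 min at 25 °C, IC50 is the geometric mean of at least four runs.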

Each structure is given as a SMILES string. Where two headings read alike, the source gives them in different places.

Sequence of TBK1 (Q9UHD2 whole entry): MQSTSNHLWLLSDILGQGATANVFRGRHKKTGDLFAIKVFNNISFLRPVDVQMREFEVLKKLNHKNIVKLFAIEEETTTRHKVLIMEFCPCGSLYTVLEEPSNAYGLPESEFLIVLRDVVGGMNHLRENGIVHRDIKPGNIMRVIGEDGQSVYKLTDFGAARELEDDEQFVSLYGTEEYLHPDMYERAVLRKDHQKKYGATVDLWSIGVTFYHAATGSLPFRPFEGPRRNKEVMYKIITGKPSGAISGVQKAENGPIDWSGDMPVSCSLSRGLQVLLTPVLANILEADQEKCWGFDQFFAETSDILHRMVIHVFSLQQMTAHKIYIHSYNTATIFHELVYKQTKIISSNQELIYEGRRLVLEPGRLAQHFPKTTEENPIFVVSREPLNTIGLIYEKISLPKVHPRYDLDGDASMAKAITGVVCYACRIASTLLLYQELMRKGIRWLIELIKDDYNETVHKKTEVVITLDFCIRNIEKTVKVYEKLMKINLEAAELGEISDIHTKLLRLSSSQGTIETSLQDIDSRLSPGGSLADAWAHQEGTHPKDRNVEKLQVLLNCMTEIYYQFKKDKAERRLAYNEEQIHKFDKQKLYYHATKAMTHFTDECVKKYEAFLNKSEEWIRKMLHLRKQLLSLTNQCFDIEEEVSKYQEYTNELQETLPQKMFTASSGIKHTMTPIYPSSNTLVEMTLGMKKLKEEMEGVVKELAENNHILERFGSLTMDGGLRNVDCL
Sequence of IKKε (Q14164 whole entry): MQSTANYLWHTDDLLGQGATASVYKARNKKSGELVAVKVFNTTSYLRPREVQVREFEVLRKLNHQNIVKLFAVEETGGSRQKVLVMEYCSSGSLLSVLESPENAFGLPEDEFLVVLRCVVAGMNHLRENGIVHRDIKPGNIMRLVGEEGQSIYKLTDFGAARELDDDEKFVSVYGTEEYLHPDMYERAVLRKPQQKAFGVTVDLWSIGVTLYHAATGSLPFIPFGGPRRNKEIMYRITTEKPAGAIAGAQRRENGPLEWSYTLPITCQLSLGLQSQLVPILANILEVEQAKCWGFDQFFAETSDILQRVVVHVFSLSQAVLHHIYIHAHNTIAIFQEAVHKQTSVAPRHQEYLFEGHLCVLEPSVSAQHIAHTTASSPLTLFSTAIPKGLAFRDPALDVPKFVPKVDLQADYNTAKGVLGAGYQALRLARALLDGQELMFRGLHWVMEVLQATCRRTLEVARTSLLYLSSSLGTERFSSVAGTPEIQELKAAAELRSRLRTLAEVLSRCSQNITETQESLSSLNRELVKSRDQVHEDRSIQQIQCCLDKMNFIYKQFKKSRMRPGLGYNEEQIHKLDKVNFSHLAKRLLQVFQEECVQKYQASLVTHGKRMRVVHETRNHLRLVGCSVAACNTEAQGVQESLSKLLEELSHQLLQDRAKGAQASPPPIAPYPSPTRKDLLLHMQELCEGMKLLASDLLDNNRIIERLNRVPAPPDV

One may read the IC50 as the midpoint of a concentration-inhibition curve. For the molecule `CC1CC(Oc2ccc(-c3ncnc(Nc4ccc(N5CCN(C6COC6)CC5)cc4)n3)cc2C#N)CC(C)N1C(=O)CO` (stereo not drawn) [Example 171, 2-((1-(2-hydroxyacetyl)-2,6-dimethylpiperidin-4-yl)oxy)-5-(4-((4-(4-(oxetan-3-yl)piperazin-1-yl)phenyl)amino)-1,3,5-triazin-2-yl)benzonitrile], the IC50 on IKKε stood at 9 nM; on hJAK2, 463 nM; on TBK1, 2 nM.
Turning to `N#Cc1cc(-c2ncnc(Nc3ccc(N4CCN(C5COC5)CC4)cc3)n2)ccc1OC1C2CC1CN(C(=O)CO)C2` (stereo not drawn) [Example 172, 2-((3-(2-hydroxyacetyl)-3-azabicyclo[3.1.1]heptan-6-yl)oxy)-5-(4-((4-(4-(oxetan-3-yl)piperazin-1-yl)phenyl)amino)-1,3,5-triazin-2-yl)benzonitrile], the IC50 was 676 nM at IKKε, at least 1000 nM on hJAK2 and 72 nM against TBK1.
Regarding `N#Cc1cc(-c2ncnc(Nc3ccc(N4CCN(C5COC5)CC4)cc3)n2)ccc1OC1CC2CCC(C1)N2C(=O)CO` (stereo not drawn) [Example 173, 2-((8-(2-hydroxyacetyl)-8-azabicyclo[3.2.1]octan-3-yl)oxy)-5-(4-((4-(4-(oxetan-3-yl)piperazin-1-yl)phenyl)amino)-1,3,5-triazin-2-yl)benzonitrile], the IC50 at IKKε came out at 218 nM; at hJAK2, 265 nM; at TBK1 (TBK1 IC50), 92 nM.
Regarding `CC1(C)CN(C(=O)CO)CC(F)C1Oc1ccc(-c2ncnc(Nc3ccc(N4CCN(C5COC5)CC4)cc3)n2)cc1C#N` (stereo not drawn) [Example 177, 2-((5-fluoro-1-(2-hydroxyacetyl)-3,3-dimethylpiperidin-4-yl)oxy)-5-(4-((4-(4-(oxetan-3-yl)piperazin-1-yl)phenyl)amino)-1,3,5-triazin-2-yl)benzonitrile], the IC50 at IKKε stood at 3 nM; on hJAK2, 117 nM; against TBK1, 6 nM.
For `C[C@H](O)C(=O)N1CC(F)C(Oc2ccc(-c3ncnc(Nc4ccc(N5CCN(C6COC6)CC5)cc4)n3)cc2C#N)C(C)(C)C1` (stereo partly drawn) [Example 180, 2-((5-fluoro-1-((S)-2-hydroxypropanoyl)-3,3-dimethylpiperidin-4-yl)oxy)-5-(4-((4-(4-(oxetan-3-yl)piperazin-1-yl)phenyl)amino)-1,3,5-triazin-2-yl)benzonitrile] the same measures were 17 nM, 317 nM and 11 nM.
For `C[C@H](O)C(=O)N1CC[C@H](Oc2ccc(-c3ncnc(Nc4ccc(N5CCN(C6COC6)CC5)cc4)n3)cc2C#N)C[C@@H]1C` [Example 181, 2-(((2S,4S)-1-((S)-2-hydroxypropanoyl)-2-methylpiperidin-4-yl)oxy)-5-(4-((4-(4-(oxetan-3-yl)piperazin-1-yl)phenyl)amino)-1,3,5-triazin-2-yl)benzonitrile] the same measures were 20 nM, 432 nM and 10 nM.
For `C[C@@H](O)C(=O)N1CC[C@H](Oc2ccc(-c3ncnc(Nc4ccc(N5CCN(C6COC6)CC5)cc4)n3)cc2C#N)C[C@@H]1C` [Example 182, 2-(((2S,4S)-1-((R)-2-hydroxypropanoyl)-2-methylpiperidin-4-yl)oxy)-5-(4-((4-(4-(oxetan-3-yl)piperazin-1-yl)phenyl)amino)-1,3,5-triazin-2-yl)benzonitrile] the same measures were 95 nM, 491 nM and 32 nM.
For `C[C@H](O)C(=O)N1CC[C@H](Oc2ccc(-c3ncnc(Nc4ccc(N5CCN(C6COC6)CC5)cc4)n3)cc2C#N)C[C@H]1C` [Example 183, 2-(((2R,4S)-1-((S)-2-hydroxypropanoyl)-2-methylpiperidin-4-yl)oxy)-5-(4-((4-(4-(oxetan-3-yl)piperazin-1-yl)phenyl)amino)-1,3,5-triazin-2-yl)benzonitrile], the IC50 was 120 nM on IKKε, 593 nM on hJAK2 and 50 nM against TBK1.
For `C[C@@H]1C[C@@H](Oc2ccc(-c3ncnc(Nc4ccc(N5CCN(C6COC6)CC5)cc4)n3)cc2C#N)CCN1C(=O)[C@@H](C)O` [Example 184, 2-(((2R,4S)-1-((R)-2-hydroxypropanoyl)-2-methylpiperidin-4-yl)oxy)-5-(4-((4-(4-(oxetan-3-yl)piperazin-1-yl)phenyl)amino)-1,3,5-triazin-2-yl)benzonitrile] the same measures were 277 nM, at least 1000 nM and 103 nM.
For `C[C@H](O)C(=O)N1CC[C@@H](Oc2ccc(-c3ncnc(Nc4ccc(N5CCN(C6COC6)CC5)cc4)n3)cc2C#N)C[C@H]1C` [Example 185, 2-(((2R,4R)-1-((S)-2-hydroxypropanoyl)-2-methylpiperidin-4-yl)oxy)-5-(4-((4-(4-(oxetan-3-yl)piperazin-1-yl)phenyl)amino)-1,3,5-triazin-2-yl)benzonitrile] the same measures were 190 nM, at least 1000 nM and 94 nM.
On to `C[C@@H]1C[C@H](Oc2ccc(-c3ncnc(Nc4ccc(N5CCN(C6COC6)CC5)cc4)n3)cc2C#N)CCN1C(=O)[C@@H](C)O` [Example 186, 2-(((2R,4R)-1-((R)-2-hydroxypropanoyl)-2-methylpiperidin-4-yl)oxy)-5-(4-((4-(4-(oxetan-3-yl)piperazin-1-yl)phenyl)amino)-1,3,5-triazin-2-yl)benzonitrile], for which the values for the IC50 on IKKε, on hJAK2 and against TBK1 were 312 nM, at least 1000 nM and 128 nM, respectively.
For `C[C@H]1C[C@@H](Oc2ccc(-c3ncnc(Nc4ccc(N5CCN(C6COC6)CC5)cc4)n3)cc2C#N)CCN1C(=O)CC#N` [Example 187, 2-(((2S,4S)-1-(2-cyanoacetyl)-2-methylpiperidin-4-yl)oxy)-5-(4-((4-(4-(oxetan-3-yl)piperazin-1-yl)phenyl)amino)-1,3,5-triazin-2-yl)benzonitrile] the same measures were 13 nM, 183 nM and 5 nM.
For `C[C@H]1C[C@@H](Oc2ccc(-c3ncnc(Nc4ccc(N5CCN(C6COC6)CC5)cc4)n3)cc2C#N)CCN1C(=O)c1cnn[nH]1` [Example 188, 2-(((2S,4S)-2-methyl-1-(1H-1,2,3-triazole-5-carbonyl)piperidin-4-yl)oxy)-5-(4-((4-(4-(oxetan-3-yl)piperazin-1-yl)phenyl)amino)-1,3,5-triazin-2-yl)benzonitrile] the same measures were 5 nM, 224 nM and 5 nM.
For `N#Cc1cc(-c2ncnc(Nc3ccc(N4CCN(C5COC5)CC4)cc3)n2)ccc1OC1CCN(C(=O)c2ccc[nH]2)CC1` [Example 190, 2-((1-(1H-pyrrole-2-carbonyl)piperidin-4-yl)oxy)-5-(4-((4-(4-(oxetan-3-yl)piperazin-1-yl)phenyl)amino)-1,3,5-triazin-2-yl)benzonitrile] the same measures were 15 nM, at least 1000 nM and 3 nM.
With `N#Cc1cc(-c2ncnc(Nc3ccc(N4CCN(C5COC5)CC4)cc3)n2)ccc1OC1CCN(C(=O)c2cc[nH]c2)CC1` [Example 191, 2-((1-(1H-pyrrole-3-carbonyl)piperidin-4-yl)oxy)-5-(4-((4-(4-(oxetan-3-yl)piperazin-1-yl)phenyl)amino)-1,3,5-triazin-2-yl)benzonitrile], the results for the IC50 at IKKε, on hJAK2 and on TBK1 were 226 nM, at least 1000 nM and 67 nM, respectively.
